Assay [1] deals with mouse embryonic fibroblasts (MEFs). Put plainly: Polysome gradient analysis in MEFs. It is filed as cell-based. On the procedure: Mouse Embryonic Fibroblasts (MEFs) or TREx-293 cells expressing eIF2α(S51D) were seeded on 150 mm plates and allowed to grow to 80% confluence. Cells were then induced with 25 nM doxycycline for 14 h and subsequently treated with the appropriate compounds for the indicated times. 100 μg/ml of cycloheximide was added to the cells for 1 min before lysis. Cells were washed twice with PBS supplemented with 100 μg/ml cycloheximide and subsequently lysed in 20 mM Tris pH 7.4, 200 mM NaCl, 15 mM MgCl, 1 mM DTT, 8% Glycerol, 100 μg/ml cycloheximide, 1% Triton X-100 and EDTA-free protease inhibitor tablets (Roche). Cells were scraped, collected, triturated with a 25^7/8 gauge needle, and the homogenate was centrifuged for 10 min at 10,000×g. The supernatant was loaded on a 10-50% sucrose gradient and sedimented in a SW40 rotor at 150,000×g for 2.4 h. The gradients were fractionated using a piston gradient fractionator (BioComp) and UV absorbance at 254 nm was monitored using a UV-Monitor (BioRad).

Assay [2] relates to rabbit reticulocyte in vitro translation system. The experiment in a line: Rabbit reticulocyte in vitro translation assay (luciferase mRNA). The following applies: rabbit reticulocyte lysate. Type of assay: biochemical. On the procedure: FIG. 24. ISRIB enhances production of luciferase in a rabbit reticulocyte in vitro translation assay; luciferase mRNA was added to the lysates in the presence or absence of different concentrations of ISRIB; the amount of luciferase protein produced was quantitated by addition of One-Glo and the Relative luminescent units were normalized to no-addition control.

Assay [3] deals with hippocampal-dependent memory. Put plainly: Trace fear conditioning after surgery (postsurgical cognitive dysfunction). The conditions noted are these: mice, perioperative administration, postoperative day three. Type of assay: in vivo, mouse. An excerpt: FIG. 26. Experimental design for measuring postsurgical cognitive dysfunction and effects of ISRIB on cognitive function; measurement of memory is a behavioral test using trace fear conditioning (TFC), which aims to establish a permanent memory in animals by using sensorial information; associative learning is presented with a neutral conditioning stimulus, paired with an aversive unconditioning stimulus (e.g. shock); freezing by the animal corresponds to the ability of the animal to retain memory from the context in which it has been trained. Separate cohorts of animals were used to assess inflammatory status 24 h after surgery. Downwards arrows represent injection points. FIG. 27. […] Control animals were given vehicle solution.

The subject of assay [4] is RPMI8226 cells. Put plainly: Polysome gradient analysis in RPMI8226 cells. Type of assay: cell-based, human. The conditions noted are these: ER-stressed (5 μg/ml tunicamycin) and un-stressed cells, 1 μM ISRIB.
In assay [5] the test system is CHOP. The experiment in a line: CHOP immunofluorescence in U2OS cells. Type of assay: cell-based, human. The following applies: 100 nM thapsigargin 2 h, 200 nM ISRIB. On the procedure: FIGS. 4A-4B. ISRIB impairs induction of the transcriptional network controlled by ATF4; (FIG. 4A) ER-stress dependent induction of CHOP and GADD34 mRNA is impaired in cells treated with ISRIB; qPCR analysis of total RNA extracted from U2OS cells treated with 2 μg/ml of tunicamycin in the presence or absence of 200 nM ISRIB for the indicated times; mRNA levels for each sample were normalized to GAPDH (N=4); P values are derived from a one tail Student's t-test for unpaired samples; statistical significance: CHOP, P=0.0006 (*); GADD34, P=0.0008 (*); (FIG. 4B) ISRIB blocks CHOP production during ER stress; an immunofluorescence analysis of U2OS cells treated with 100 nM thapsigargin for 2 h in the presence or absence of 200 nM ISRIB is shown; a secondary Alexa Dye 488 anti-mouse antibody and rhodamine-phalloidin were used to visualize CHOP and actin, respectively.
U2OS cells were seeded on Slide Flasks (Thermo Scientific) 18 h prior to processing for immunofluorescence. Cells (60% confluent) were fixed with 4% paraformaldehyde in PBS for 15 min. The cells were then rinsed 3 times with PBS and permeabilized with 0.3% Triton X-100. The fixed cells were rinsed 3 times with PBS and blocked for 1 h at room temperature in PBS supplemented with 0.1% Triton X-100 and 5% normal goat serum. […]

The subject of assay [6] is auditory fear memory. Put plainly: Cannulation and auditory fear conditioning. It is filed as in vivo, rat. The following applies: rats, infused into amygdala, vs vehicle. On the procedure:
Male Sprague Dawley rats (275-350 g) were used for cannulation as described in Migues et al, 2010 (46). ISRIB (0.05 mg/ml, […]) was infused bilaterally into the amygdala immediately after auditory fear conditioning training. The infusion was performed with a microinjector (28 gauge) connected to a Hamilton syringe with plastic tubing at a rate of 0.4 μl/min. To allow for the solution containing ISRIB to diffuse from the tip of the cannula into the tissue, the microinjector stayed in the cannula for one additional minute. Training protocol for auditory fear conditioning consisted of a 2-min period of context A exploration, followed by one pairing of a tone (2800 Hz, 85 dB, 30 s) with a co-terminating foot shock (0.75 mA, 1 s). Rats were returned to their home cage 1 min after the shock. Test for auditory fear memory consisted of a 2 min acclimatizing period to the context B (pre-CS), followed by tone presentation (CS) (2800 Hz, 85 dB, 30 s). Freezing time was measured and percent of freezing was calculated. At the end of the experiment, cannula placement was checked by examining 50 μm brain sections stained with formal-thionin under a light microscope.

Turning to `O=C(COc1ccc(Cl)cc1)NC1CCC(NC(=O)COc2ccc(Cl)cc2)CC1` (centres unmarked) [ISRIB], the “translational attenuation by Torin-1 (CAP-dependent initiation)” value in assay [1] (750 nM torin-1, 200 nM ISRIB, 2 h) is given as “did not reverse the effect of Torin-1 on translation”. Besides, the “ER stress-induced increase in 80S monosomes at the expense of polyribosomes” value in assay [1] (2 μg/ml tunicamycin, 200 nM ISRIB, 1 h) is given as “reversed (at least partially)”. Besides, in assay [2], the “translation of exogenously added mRNA” value is listed as “enhances translation”. The “memory impairment after surgery (freezing)” value in assay [3] is reported as “mitigated memory impairment after surgery”. Besides, the “translation in multiple myeloma cells” value in assay [4] was “increased translation”. Besides, in assay [5], the “CHOP accumulation after induction of ER stress” value was “no CHOP accumulation”. Also, the “freezing to tone (CS), short-term memory” value in assay [6] (3 h) is listed as “no difference”. Further, the “freezing to tone (CS), long-term memory” value in assay [6] (24 h, p<0.05) is “significant increase”.

The record behind these values is US9708247B2, “Modulators of the eIF2alpha pathway” (The Regents of the University of California, priority 2013, dated 2017).
